Where a SMILES comes first, the peptide text is derived from it. [ ]: non-standard residue; d: D form. Nle = CCCC[C@H](N)C(=O)O
What follows are compounds tested on frog (assay: In vitro potency relative to alpha-melanotropin (alpha-MSH), in the frog (Rana pipiens) skin bioassay).
Assay type: functional

Row | Compound | Relative potency
1 | CC(=O)N[C@@H](CCCCN)C(N)=O | 0
2 | CC(=O)N[C@@H](Cc1c[nH]cn1)C(=O)N[C@@H](Cc1ccccc1)C(=O)N[C@@H](CCCN=C(N)N)C(=O)N[C@@H](Cc1c[nH]c2ccccc12)C(N)=O | 5e-06
3 | CCCC[C@H](NC(C)=O)C(=O)N[C@@H](CCC(=O)O)C(=O)N[C@@H](Cc1c[nH]cn1)C(=O)N[C@@H](Cc1ccccc1)C(=O)N[C@@H](CCCN=C(N)N)C(=O)N[C@@H](Cc1c[nH]c2ccccc12)C(=O)NCC(=O)N[C@@H](CCCCN)C(=O)N1CCC[C@H]1C(=O)N[C@H](C(N)=O)C(C)C | 0.4
4 | CCCC[C@H](NC(C)=O)C(=O)N[C@@H](CCC(=O)O)C(=O)N[C@@H](Cc1c[nH]cn1)C(=O)N[C@@H](Cc1ccccc1)C(=O)N[C@@H](CCCN=C(N)N)C(=O)N[C@@H](Cc1c[nH]c2ccccc12)C(=O)NCC(N)=O | 0.002
5 | CSCC[C@H](NC(C)=O)C(=O)N[C@@H](CCC(=O)O)C(=O)N[C@@H](Cc1c[nH]cn1)C(=O)N[C@@H](Cc1ccccc1)C(=O)N[C@@H](CCCN=C(N)N)C(=O)N[C@@H](Cc1c[nH]c2ccccc12)C(=O)NCC(N)=O | 0.0005
6 | CC(=O)N[C@@H](Cc1ccccc1)C(=O)N[C@@H](CCCN=C(N)N)C(=O)N[C@@H](Cc1c[nH]c2ccccc12)C(=O)NCC(N)=O (Ac-FRWG-NH2) | 0
7 | CC(=O)N[C@@H](Cc1c[nH]cn1)C(=O)N[C@@H](Cc1ccccc1)C(=O)N[C@@H](CCCN=C(N)N)C(N)=O (Ac-His-Phe-Arg-NH2) | 0
8 | CC(=O)N[C@@H](Cc1c[nH]cn1)C(=O)N[C@@H](Cc1ccccc1)C(N)=O (Ac-His-Phe-NH2) | 0
9 | CC(=O)N[C@@H](CCCCN)C(=O)N1CCC[C@H]1C(=O)N[C@H](C(N)=O)C(C)C (Ac-Lys-Pro-Val-NH2) | 0
10 | CC(=O)N[C@@H](Cc1ccccc1)C(=O)N[C@@H](CCCN=C(N)N)C(N)=O (Ac-Phe-Arg-NH2) | 0
11 | CCCC[C@H](NC(C)=O)C(=O)N[C@@H](CCC(=O)O)C(=O)N[C@@H](Cc1c[nH]cn1)C(=O)N[C@@H](Cc1ccccc1)C(=O)N[C@@H](CCCN=C(N)N)C(=O)N[C@@H](Cc1c[nH]c2ccccc12)C(=O)NCC(=O)N[C@@H](CCCCN)C(N)=O (Ac-[Nle]EHFRWGK-NH2) | 0.002
12 | CCCC[C@H](NC(C)=O)C(=O)N[C@@H](CCC(=O)O)C(=O)N[C@@H](Cc1c[nH]cn1)C(=O)N[C@@H](Cc1ccccc1)C(=O)N[C@@H](CCCN=C(N)N)C(=O)N[C@@H](Cc1c[nH]c2ccccc12)C(=O)NCC(=O)N[C@@H](CCCCN)C(=O)N1CCC[C@H]1C(N)=O (Ac-[Nle]EHFRWGKP-NH2) | 0.18
13 | N=C(N)NCCC[C@H](NC(=O)[C@@H](N)Cc1ccccc1)C(=O)O (H-Phe-Arg-OH) | 0
14 | Ac-EHFRWG-NH2 | 0.00014
15 | Ac-HFRWG-NH2 | 8e-05
16 | Ac-MEHFRWGKP-NH2 | 0.18

From ChEMBL document CHEMBL1123651, “alpha-Melanotropin: the minimal active sequence in the frog skin bioassay” (J Med Chem, 1987)
